PMC3460867, “MmPPOX Inhibits Mycobacterium tuberculosis Lipolytic Enzymes Belonging to the Hormone-Sensitive Lipase Family and Alters Mycobacterial Growth” (PLoS ONE, 2012)
In brackets after ≈: the same amount, converted by molar mass. Like-named read-outs stand apart in the source and are kept apart here.

How the values were obtained:
LipH = format: biochemical; settings: pNPC4
LipI = LipI (Mycobacterium tuberculosis, UniProt P71668); assay: biochemical; format: biochemical; settings: for x I50: inhibitor molar excess leading to 50% residual activity after 10 min incubation; for Residual activity (%) 10 min: 10 min incubation; for Residual activity (%) 30 min: 30 min incubation
Chain of LipI (P71668 whole entry): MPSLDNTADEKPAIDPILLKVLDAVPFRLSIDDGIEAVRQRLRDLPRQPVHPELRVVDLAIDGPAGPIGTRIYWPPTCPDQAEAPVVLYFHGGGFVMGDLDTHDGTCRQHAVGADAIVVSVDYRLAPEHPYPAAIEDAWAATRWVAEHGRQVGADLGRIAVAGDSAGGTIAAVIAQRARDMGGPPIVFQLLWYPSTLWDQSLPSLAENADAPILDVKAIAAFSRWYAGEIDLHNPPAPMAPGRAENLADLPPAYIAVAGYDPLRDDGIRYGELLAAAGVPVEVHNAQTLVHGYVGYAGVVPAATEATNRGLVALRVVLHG

Lip-HSL enzymes = assay: Inhibition of all Lip-HSL enzymes tested, pre-incubation method, residual activity on pNPC4 (statements for the family); format: biochemical
LipW = format: biochemical; settings: pNPC4
LipU = LipU (Mycobacterium tuberculosis, UniProt O53424); assay: biochemical; format: biochemical; settings: for x I50: inhibitor molar excess leading to 50% residual activity after 10 min incubation
Chain of LipU (O53424 whole entry): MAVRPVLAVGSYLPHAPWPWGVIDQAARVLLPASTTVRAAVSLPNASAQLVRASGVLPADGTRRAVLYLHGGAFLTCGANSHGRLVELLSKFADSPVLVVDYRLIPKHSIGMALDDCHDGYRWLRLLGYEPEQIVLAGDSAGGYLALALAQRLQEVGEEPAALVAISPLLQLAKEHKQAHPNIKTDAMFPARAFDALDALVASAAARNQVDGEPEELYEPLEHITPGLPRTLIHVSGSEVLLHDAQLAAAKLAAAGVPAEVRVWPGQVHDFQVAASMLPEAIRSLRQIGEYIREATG

LipF = format: biochemical; settings: for Residual activity (%) 10 min / Residual activity (%) 30 min: pNPC4
Cut6 = Cut6 (Mycobacterium tuberculosis, UniProt O53581); assay: biochemical; format: biochemical; settings: for x I50: inhibitor molar excess leading to 50% residual activity after 10 min incubation
Chain of Cut6 (O53581 44-336): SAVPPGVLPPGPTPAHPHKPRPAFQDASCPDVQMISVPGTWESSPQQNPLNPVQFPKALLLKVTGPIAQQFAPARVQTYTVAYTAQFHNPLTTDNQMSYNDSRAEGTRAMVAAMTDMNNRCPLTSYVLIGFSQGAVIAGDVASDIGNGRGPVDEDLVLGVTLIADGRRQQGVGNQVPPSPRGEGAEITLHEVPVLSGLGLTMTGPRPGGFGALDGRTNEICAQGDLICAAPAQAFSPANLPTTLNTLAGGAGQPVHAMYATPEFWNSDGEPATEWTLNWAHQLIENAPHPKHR

[1] = tested on: M. bovis BCG strain Pasteur 1173P2; assay: microbe, parasite or virus in culture; format: cell-based; settings: Mycobacterium tuberculosis variant bovis BCG
LipC = LipC (Mycobacterium tuberculosis, UniProt P96402); assay: biochemical; format: biochemical; settings: for x I50: inhibitor molar excess leading to 50% residual activity after 10 min incubation; for Residual activity (%) 10 min: 10 min incubation; for Residual activity (%) 30 min: 30 min incubation
Chain of LipC (P96402 whole entry): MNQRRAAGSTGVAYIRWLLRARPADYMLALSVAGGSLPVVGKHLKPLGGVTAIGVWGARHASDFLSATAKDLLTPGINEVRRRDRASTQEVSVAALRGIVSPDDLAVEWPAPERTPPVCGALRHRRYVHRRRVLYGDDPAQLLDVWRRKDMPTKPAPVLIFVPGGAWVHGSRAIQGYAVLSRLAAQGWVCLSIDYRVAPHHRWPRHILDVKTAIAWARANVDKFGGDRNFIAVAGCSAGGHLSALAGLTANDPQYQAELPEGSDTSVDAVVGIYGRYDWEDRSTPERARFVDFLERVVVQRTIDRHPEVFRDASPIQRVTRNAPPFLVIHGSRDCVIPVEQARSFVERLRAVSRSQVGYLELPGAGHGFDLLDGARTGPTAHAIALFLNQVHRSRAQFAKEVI

LipN = assay: Inhibition of recombinant LipN, pre-incubation method, residual activity on pNPC4; format: biochemical, M. tuberculosis; settings: for Residual activity (%) 10 min / Residual activity (%) 30 min: pNPC4
LipR = format: biochemical; settings: pNPC4
LipY = target: T1, LipY (Mycobacterium tuberculosis, UniProt I6Y2J4); assay: biochemical; format: biochemical, M. tuberculosis; settings: for Ki: Apparent K i
T1 sequence (I6Y2J4 1-437): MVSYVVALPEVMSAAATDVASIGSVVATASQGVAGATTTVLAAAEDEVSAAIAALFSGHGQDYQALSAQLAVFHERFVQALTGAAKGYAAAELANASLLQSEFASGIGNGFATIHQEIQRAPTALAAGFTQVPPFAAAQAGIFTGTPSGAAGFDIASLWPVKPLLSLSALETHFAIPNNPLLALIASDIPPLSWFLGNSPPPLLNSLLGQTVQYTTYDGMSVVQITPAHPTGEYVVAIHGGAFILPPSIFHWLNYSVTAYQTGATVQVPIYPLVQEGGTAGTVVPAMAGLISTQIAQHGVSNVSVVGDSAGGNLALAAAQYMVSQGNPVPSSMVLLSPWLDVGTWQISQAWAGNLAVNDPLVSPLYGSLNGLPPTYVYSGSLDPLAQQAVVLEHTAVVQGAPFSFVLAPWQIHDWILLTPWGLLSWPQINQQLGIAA

[2] = tested on: M. tuberculosis strain mc^27000; assay: microbe, parasite or virus in culture; format: cell-based; settings: Mycobacterium tuberculosis
[3] = LipI, near stoichiometric proportions of inhibitor (x I<2)
[4] = near stoichiometric proportions of inhibitor (x I<2)
[5] = LipC, near stoichiometric proportions of inhibitor (x I<2)

## COc1nn(-c2cccc(Oc3ccccc3)c2)c(=O)o1 [MmPPOX, 5-methoxy-N-3-(meta-phenoxyphenyl)-1,3,4-oxadiazol-2(3H)-one]
LipH; x I = 5, 10 min incubation
  Residual activity (%) 10 min: 9%
LipH; x I = 5, 30 min incubation
  Residual activity (%) 30 min: 9%
LipH; x I = 10, 10 min incubation
  Residual activity (%) 10 min: 0%
LipH; x I = 10, 30 min incubation
  Residual activity (%) 30 min: 0%
LipI
  Ki: 0.1 µM
LipI; LipI, calculated as x I50 (THL)/x I50 (MmPPOX)
  x I50 ratio: 131.8
LipI; LipI, pNPC4
  x I50: 0.5
LipI; [3]
  Half inactivation time (t1/2): < 1 min
  Remaining activities: < 10%
LipI; LipI, x I = 1, pNPC4
  Residual activity (%) 10 min: 7%
  Residual activity (%) 30 min: 6%
LipI; LipI, x I = 2, pNPC4
  Residual activity (%) 10 min: 0%
  Residual activity (%) 30 min: 0%
Lip-HSL enzymes; LipF, LipR, LipU and LipW
  Activity restoration: increase of residual activity after 30 min as compared to 10 min: 4–8%
Lip-HSL enzymes; all Lip-HSL enzymes tested, x I = 20
  Half inactivation time (t1/2): < 1 min
Lip-HSL enzymes; all Lip-HSL enzymes tested, x I = 20, 10 min incubation, pNPC4
  Remaining activities: less than 15%
LipW; x I = 20, 10 min incubation
  Residual activity (%) 10 min: 6%
LipW; x I = 20, 30 min incubation
  Residual activity (%) 30 min: 13%
LipU; Apparent K i, pNPC4
  Ki: 5.1 µM
LipU; calculated as x I50 (THL)/x I50 (MmPPOX)
  x I50 ratio: >333
LipU; pNPC4
  x I50: 1.5
LipU; x I = 20, 10 min incubation, pNPC4
  Residual activity (%) 10 min: 10%
LipU; x I = 20, 30 min incubation, pNPC4
  Residual activity (%) 30 min: 17%
LipF; [4]
  Half inactivation time (t1/2): < 1 min
  Remaining activities: < 10%
LipF; x I = 1, 10 min incubation
  Residual activity (%) 10 min: 7%
LipF; x I = 1, 30 min incubation
  Residual activity (%) 30 min: 11%
LipF; x I = 2, 10 min incubation
  Residual activity (%) 10 min: 0%
LipF; x I = 2, 30 min incubation
  Residual activity (%) 30 min: 0%
Cut6; Apparent K i, Cut6, pNPC4
  Ki: > 1000 µM
Cut6; Apparent K i, Cut6, pNPC4, value of the text
  Ki: 6400 µM
Cut6; Cut6, calculated as x I50 (THL)/x I50 (MmPPOX)
  x I50 ratio: <0.1
Cut6; Cut6, pNPC4
  x I50: 227.9
Cut6; Cut6, x I = 20
  Activity in the presence of inhibitor: retained full activity
Cut6; Cut6, x I = 20, 10 min incubation, pNPC4
  Residual activity (%) 10 min: 100%
Cut6; Cut6, x I = 20, 30 min incubation, pNPC4
  Residual activity (%) 30 min: 100%
Cut6; Cut6 vs Lip-HSL proteins
  Apparent K i for Cut6 relative to those of Lip-HSL proteins (times higher): about 1000
[1]
  MIC: 10 to 20 µg/mL (≈ 35.2 to 70.4 µM)
LipC
  Ki: 1 µM
LipC; LipC, calculated as x I50 (THL)/x I50 (MmPPOX)
  x I50 ratio: >10^3
LipC; LipC, pNPC4
  x I50: 0.5
LipC; [5]
  Half inactivation time (t1/2): < 1 min
  Remaining activities: < 10%
LipC; LipC, x I = 2, pNPC4
  Residual activity (%) 10 min: 7%
  Residual activity (%) 30 min: 5%
LipC; LipC, x I = 5, pNPC4
  Residual activity (%) 10 min: 0%
  Residual activity (%) 30 min: 0%
LipN; [4]
  Half inactivation time (t1/2): < 1 min
  Remaining activities: < 10%
LipN; x I = 2, 10 min incubation
  Residual activity (%) 10 min: 6%
LipN; x I = 2, 30 min incubation
  Residual activity (%) 30 min: 6%
LipN; x I = 5, 10 min incubation
  Residual activity (%) 10 min: 0%
LipN; x I = 5, 30 min incubation
  Residual activity (%) 30 min: 0%
LipR; x I = 20, 10 min incubation
  Residual activity (%) 10 min: 7%
LipR; x I = 20, 30 min incubation
  Residual activity (%) 30 min: 15%
LipY
  Residual activity (%) 10 min: 5%
  Residual activity (%) 30 min: 5%
  x I50 ratio: 0.4
  Ki: 7.7 µM
[2]
  MIC: ~25 µg/mL (≈ 87.9 µM)

## CCCCCCCCCCC[C@@H](C[C@@H]1OC(=O)[C@H]1CCCCCC)OC(=O)[C@H](CC(C)C)NC=O [THL, Tetrahydrolipstatin]
LipI; LipI, pNPC4
  x I50: 65.9
LipI; LipI, pNPC4, read-out: Apparent K i
  Ki: 13.1 µM
LipU; pNPC4
  x I50: >500
LipU; pNPC4, read-out: Apparent K i
  Ki: > 1000 µM
Cut6; Cut6, pNPC4
  x I50: 9.7
Cut6; Cut6, pNPC4, read-out: Apparent K i
  Ki: 142 µM
[1]
  MIC: 7.5 µg/mL (≈ 15.1 µM)
LipC; LipC, pNPC4
  x I50: >500
LipC; LipC, pNPC4, read-out: Apparent K i
  Ki: > 1000 µM
LipY
  Ki: 3.2 µM
[2]
  MIC: 20 µg/mL (≈ 40.3 µM)
